{"source": "paper PMC7926352", "about": "“Synthesis, Characterization and In Vitro Evaluation of Novel 5-Ene-thiazolo[3,2-b][1,2,4]triazole-6(5H)-ones as Possible Anticancer Agents” (Molecules, 2021)", "key": {"[1]": {"test_system": "Ovarian Cancer cell lines", "conditions": "Ovarian Cancer subpanel"}, "SF-295": {"test_system": "SF-295", "conditions": "SF-295, CNS Cancer"}, "Breast Cancer cell lines": {"test_system": "Breast Cancer cell lines", "conditions": "Breast Cancer subpanel"}, "UACC-62": {"test_system": "UACC-62", "conditions": "UACC-62, Melanoma"}, "HCT-116": {"test_system": "HCT-116", "conditions": "HCT-116, Colon cancer"}, "SNB-19": {"test_system": "SNB-19", "assay_type": "cell-based", "conditions": "SNB-19, CNS Cancer"}, "SF-539": {"test_system": "SF-539", "conditions": "SF-539, CNS Cancer"}, "SK-OV-3": {"test_system": "SK-OV-3", "conditions": "SK-OV-3, Ovarian Cancer"}, "HOP-92": {"test_system": "HOP-92", "conditions": "HOP-92, NSCLC"}, "T-47D": {"test_system": "T-47D", "assay_type": "cell-based", "conditions": "Breast Cancer"}, "A498": {"test_system": "A498", "conditions": "A498, Renal Cancer"}, "Melanoma cell lines": {"test_system": "Melanoma cell lines", "conditions": "Melanoma subpanel"}, "Renal Cancer cell lines": {"test_system": "Renal Cancer cell lines", "conditions": "Renal Cancer subpanel"}, "HOP-62": {"test_system": "HOP-62", "conditions": "HOP-62, NSCLC"}, "Colon cancer cell lines": {"test_system": "Colon cancer cell lines", "conditions": "Colon cancer subpanel"}, "K-562": {"test_system": "K-562", "conditions": "K-562, Leukemia"}, "MDA-MB-435": {"test_system": "MDA-MB-435", "conditions": "MDA-MB-435, Breast Cancer"}, "OVCAR-3": {"test_system": "OVCAR-3", "conditions": "OVCAR-3, Ovarian Cancer"}, "CCRF-CEM": {"test_system": "CCRF-CEM", "conditions": "Leukemia"}, "KM12": {"test_system": "KM12", "conditions": "KM12, Colon cancer"}, "EKVX": {"test_system": "EKVX", "conditions": "NSCLC"}, "SF-268": {"test_system": "SF-268", "conditions": "SF-268, CNS Cancer"}, "SK-MEL-28": {"test_system": "SK-MEL-28", "conditions": "SK-MEL-28, Melanoma"}, "Leukemia cell lines": {"test_system": "Leukemia cell lines", "conditions": "Leukemia subpanel"}, "COLO 205": {"test_system": "COLO 205", "assay_type": "cell-based", "conditions": "COLO 205, Colon cancer"}, "HL-60 (TB)": {"test_system": "HL-60 (TB)", "conditions": "HL-60 (TB), Leukemia"}, "RXF 393": {"test_system": "RXF 393", "conditions": "RXF 393, Renal Cancer"}, "MOLT-4": {"test_system": "MOLT-4", "conditions": "MOLT-4, Leukemia"}, "CAKI-1": {"test_system": "CAKI-1", "conditions": "CAKI-1, Renal Cancer"}, "UO-31": {"test_system": "UO-31", "conditions": "UO-31, Renal Cancer"}, "[2]": {"conditions": "read-out: GI50, values range inside panel"}, "[3]": {"conditions": "read-out: LC50 (the source's name)"}}, "note": "Like-named read-outs stand apart in the source and are kept apart here.", "data": [{"substance": "Ethyl(Z)-4-(3-(4-chloro-2-((6-oxothiazolo[3,2-b][1,2,4]triazol-5(6H)-ylidene)methyl)phenyl)propanamido)benzoate [Compound 2i]", "values": [{"measurement": "TGI, panel MG_MID", "setting": "[1]", "value": 31.15, "unit": "µM"}, {"measurement": "TGI, values range inside panel", "setting": "[1]", "value": "20.89 to 38.90", "unit": "µM"}, {"measurement": "GI50", "setting": "[1]; read-out: GI50, panel MG_MID", "value": 13.7, "unit": "µM"}, {"measurement": "GI50", "setting": "SF-295", "value": 10.5, "unit": "µM"}, {"measurement": "TGI", "setting": "SF-295", "value": 23.44, "unit": "µM"}, {"measurement": "TGI, panel MG_MID", "setting": "Breast Cancer cell lines", "value": 30.29, "unit": "µM"}, {"measurement": "GI50", "setting": "Breast Cancer cell lines; read-out: GI50, panel MG_MID", "value": 9.72, "unit": "µM"}, {"measurement": "GI50", "setting": "Breast Cancer cell lines; [2]", "value": "3.54 to 21.9", "unit": "µM"}, {"measurement": "GI50", "setting": "UACC-62", "value": 13.8, "unit": "µM"}, {"measurement": "TGI", "setting": "UACC-62", "value": 26.30, "unit": "µM"}, {"measurement": "GI50", "setting": "HCT-116", "value": 9.55, "unit": "µM"}, {"measurement": "TGI", "setting": "HCT-116", "value": 23.44, "unit": "µM"}, {"measurement": "GI50", "setting": "SNB-19", "value": 10.2, "unit": "µM"}, {"measurement": "TGI", "setting": "SNB-19", "value": 23.44, "unit": "µM"}, {"measurement": "CC50", "setting": "SNB-19; [3]", "value": 52.5, "unit": "µM"}, {"measurement": "GI50", "setting": "SF-539", "value": 12.6, "unit": "µM"}, {"measurement": "TGI", "setting": "SF-539", "value": 25.11, "unit": "µM"}, {"measurement": "GI50", "setting": "SK-OV-3", "value": 19.9, "unit": "µM"}, {"measurement": "TGI", "setting": "SK-OV-3", "value": 35.48, "unit": "µM"}, {"measurement": "GI50", "setting": "HOP-92", "value": 10.2, "unit": "µM"}, {"measurement": "TGI", "setting": "HOP-92", "value": 29.51, "unit": "µM"}, {"measurement": "GI50", "setting": "T-47D", "value": 11, "unit": "µM"}, {"measurement": "TGI", "setting": "T-47D", "value": 38.01, "unit": "µM"}, {"measurement": "CC50", "setting": "T-47D; [3]", "value": 41.7, "unit": "µM"}, {"measurement": "GI50", "setting": "A498", "value": 17.4, "unit": "µM"}, {"measurement": "TGI", "setting": "A498", "value": 31.62, "unit": "µM"}, {"measurement": "TGI, panel MG_MID", "setting": "Melanoma cell lines", "value": 25.61, "unit": "µM"}, {"measurement": "TGI, values range inside panel", "setting": "Melanoma cell lines", "value": "18.19 to 33.11", "unit": "µM"}, {"measurement": "GI50", "setting": "Melanoma cell lines; read-out: GI50, panel MG_MID", "value": 11.8, "unit": "µM"}, {"measurement": "GI50", "setting": "Melanoma cell lines; [2]", "value": "5.62 to 14.8", "unit": "µM"}, {"measurement": "CC50", "setting": "Melanoma cell lines; read-out: LC50, panel MG_MID", "value": 55.4, "unit": "µM"}, {"measurement": "TGI, panel MG_MID", "setting": "Renal Cancer cell lines", "value": 27.13, "unit": "µM"}, {"measurement": "TGI, values range inside panel", "setting": "Renal Cancer cell lines", "value": "21.37 to 31.62", "unit": "µM"}, {"measurement": "GI50", "setting": "Renal Cancer cell lines; read-out: GI50, panel MG_MID", "value": 13, "unit": "µM"}, {"measurement": "GI50", "setting": "Renal Cancer cell lines; [2]", "value": "5.75 to 17.4", "unit": "µM"}, {"measurement": "CC50", "setting": "Renal Cancer cell lines; read-out: LC50, values range inside panel", "value": "51.3 to 58.9", "unit": "µM"}, {"measurement": "GI50", "setting": "HOP-62", "value": 13.2, "unit": "µM"}, {"measurement": "TGI", "setting": "HOP-62", "value": 26.91, "unit": "µM"}, {"measurement": "TGI, panel MG_MID", "setting": "Colon cancer cell lines", "value": 26.51, "unit": "µM"}, {"measurement": "TGI, values range inside panel", "setting": "Colon cancer cell lines", "value": "21.37 to 33.11", "unit": "µM"}, {"measurement": "GI50", "setting": "Colon cancer cell lines; read-out: GI50, panel MG_MID", "value": 12.4, "unit": "µM"}, {"measurement": "GI50", "setting": "Colon cancer cell lines; [2]", "value": "9.55 to 16.6", "unit": "µM"}, {"measurement": "GI50", "setting": "K-562", "value": 18.2, "unit": "µM"}, {"measurement": "TGI", "setting": "K-562", "value": "> 100", "unit": "µM"}, {"measurement": "GI50", "setting": "MDA-MB-435", "value": 10.5, "unit": "µM"}, {"measurement": "TGI", "setting": "MDA-MB-435", "value": 25.11, "unit": "µM"}, {"measurement": "GI50", "setting": "OVCAR-3", "value": 13.8, "unit": "µM"}, {"measurement": "TGI", "setting": "OVCAR-3", "value": 27.54, "unit": "µM"}, {"measurement": "GI50", "setting": "CCRF-CEM", "value": 2.88, "unit": "µM"}, {"measurement": "TGI", "setting": "CCRF-CEM", "value": 9.99, "unit": "µM"}, {"measurement": "GI50", "setting": "KM12", "value": 10.2, "unit": "µM"}, {"measurement": "TGI", "setting": "KM12", "value": 23.98, "unit": "µM"}, {"measurement": "GI50", "setting": "EKVX", "value": 12.9, "unit": "µM"}, {"measurement": "TGI", "setting": "EKVX", "value": 25.70, "unit": "µM"}, {"measurement": "GI50", "setting": "SF-268", "value": 6.02, "unit": "µM"}, {"measurement": "TGI", "setting": "SF-268", "value": 28.84, "unit": "µM"}, {"measurement": "GI50", "setting": "SK-MEL-28", "value": 12, "unit": "µM"}, {"measurement": "TGI", "setting": "SK-MEL-28", "value": 23.98, "unit": "µM"}, {"measurement": "TGI, panel MG_MID", "setting": "Leukemia cell lines", "value": 51.55, "unit": "µM"}, {"measurement": "GI50", "setting": "Leukemia cell lines; read-out: GI50, panel MG_MID", "value": 11.3, "unit": "µM"}, {"measurement": "GI50", "setting": "Leukemia cell lines; [2]", "value": "2.88 to 18.2", "unit": "µM"}, {"measurement": "GI50", "setting": "COLO 205", "value": 14.8, "unit": "µM"}, {"measurement": "TGI", "setting": "COLO 205", "value": 31.62, "unit": "µM"}, {"measurement": "CC50", "setting": "COLO 205; [3]", "value": 67.6, "unit": "µM"}, {"measurement": "GI50", "setting": "HL-60 (TB)", "value": 12.3, "unit": "µM"}, {"measurement": "TGI", "setting": "HL-60 (TB)", "value": 41.68, "unit": "µM"}, {"measurement": "CC50", "setting": "HL-60 (TB); read-out: LC50", "value": "> 100", "unit": "µM"}, {"measurement": "GI50", "setting": "RXF 393", "value": 5.75, "unit": "µM"}, {"measurement": "TGI", "setting": "RXF 393", "value": 21.37, "unit": "µM"}, {"measurement": "GI50", "setting": "MOLT-4", "value": 18.2, "unit": "µM"}, {"measurement": "TGI", "setting": "MOLT-4", "value": 52.48, "unit": "µM"}, {"measurement": "GI50", "setting": "CAKI-1", "value": 10.5, "unit": "µM"}, {"measurement": "TGI", "setting": "CAKI-1", "value": 23.98, "unit": "µM"}, {"measurement": "GI50", "setting": "UO-31", "value": 15.1, "unit": "µM"}, {"measurement": "TGI", "setting": "UO-31", "value": 29.51, "unit": "µM"}]}]}
